{
  "source": "patent EP2428201A1",
  "about": "“Oral administration of nucleoside monophosphates” (Merck Serono S.A., priority 2010, dated 2012)",
  "origin": "cited, not measured here",
  "conditions": "administered orally, compared to the drug given by injection",
  "data": [
    {"smiles": "Nc1nc(Cl)nc2c1ncn2[C@H]1C[C@H](O)[C@@H](CO)O1", "note": "[cladribine, 2-chloro-2'-deoxyadenosine]", "values": [
      {"measurement": "bioavailability", "value": "reduced bioavailability"}
    ]}
  ]
}
